Test results taken from patent US11236047B2 (ASTEX THERAPEUTICS LIMITED, priority 2017, dated 2022).
Read-outs that look alike come from different tables or passages of the source. Blank lines part the entries; values can stand above or below the compound they belong to.

Tested on: SJSA-1 cells
Assay: Protocol B: SJSA-1 CellTiter-Glo luminescent cell viability assay
[1] = read-out: SJSA1 IC50 (μM) (Protocol B), SJSA-1, Protocol B
[2] = Homo sapiens, SJSA-1, read-out: SJSA1 IC50 (μM) (Protocol B), SJSA-1, Protocol B
[3] = read-out: SJSA1 IC50, Protocol B, SJSA-1

Compound: CC(O)(CN1CCCC1)c1cc(F)c2c(c1)C(=O)N(Cc1ccc(C#N)cn1)[C@@]2(OCC1(C#N)CC1)c1ccc(Cl)cc1 (single isomer, unassigned) [Example 276]
IC50 [1]: 2.5 µM

Compound: CO[C@]1(c2ccc(Cl)cc2)c2c(F)cc(C(C)(O)C3CN(C(C)=O)C3)cc2C(=O)N1Cc1ccc(Cl)cn1 (stereo partly drawn) [Example 389, (3R)-6-[1-(1-acetylazetidin-3-yl)-1-hydroxyethyl]-3-(4-chlorophenyl)-2-[(5-chloropyridin-2-yl)methyl]-4-fluoro-3-methoxy-2,3-dihydro-1H-isoindol-1-one]
IC50 [1]: 4.2 µM

Compound: CC(O)(c1cc(F)c2c(c1)C(=O)N(Cc1ncc(Cl)cn1)[C@@]2(OCC1(C(N)=O)CC1)c1ccc(Cl)cc1)C1CCC1 (single isomer, unassigned) [Example 404]
IC50 [1]: 0.095 µM

Compound: CN(C)CC(C)(O)c1cc(F)c2c(c1)C(=O)N(Cc1ccc(Cl)cn1)[C@@]2(O[C@H]1CCOC1)c1ccc(Cl)cc1 (single isomer, unassigned) [Example 138]
IC50 [2]: 0.56 µM

Compound: COc1ccc(CN2C(=O)c3cc(C(C)(O)c4cnn(C)c4)cc(F)c3[C@]2(OCC2(CO)CC2)c2ccc(Cl)cc2)cn1 (stereo partly drawn) [Example 219, (3R)-3-(4-chlorophenyl)-4-fluoro-6-[1-hydroxy-1-(1-methyl-1H-pyrazol-4-yl)ethyl]-3-{[1-(hydroxymethyl)cyclopropyl]methoxy}-2-[(6-methoxypyridin-3-yl)methyl]-2,3-dihydro-1H-isoindol-1-one]
IC50 [1]: 0.11 µM

Compound: Cn1cc(C(C)(O)c2cc(F)c3c(c2)C(=O)N(Cc2ccc(Cl)cn2)[C@@]3(OCC2(C(N)=O)CC2)c2ccc(Cl)cc2)cn1 (single isomer, unassigned) [Example 178]
IC50 [2]: 0.1 µM

Compound: Cc1nc(C(C)(O)c2cc(F)c3c(c2)C(=O)N(Cc2ccc(Cl)cn2)[C@@]3(OCC2(C(N)=O)CC2)c2ccc(Cl)cc2)cn1C (single isomer, unassigned) [Example 197]
IC50 [2]: 0.21 µM

Compound: Cn1cnc(C(C)(O)c2cc(F)c3c(c2)C(=O)N(Cc2ccc(Cl)cn2)[C@@]3(OCC2(O)CC2)c2ccc(Cl)cc2)c1 (single isomer, unassigned) [Example 195]
IC50 [1]: 0.61 µM

Compound: CCOCC(C)(O)c1cc(F)c2c(c1)C(=O)N(Cc1ccc(Cl)cn1)[C@@]2(O[C@H]1CCOC1)c1ccc(Cl)cc1 (single isomer, unassigned) [Example 140]
IC50 [1]: 0.23 µM

Compound: Cc1nc(C(C)(O)c2cc(F)c3c(c2)C(=O)N(Cc2ccc(Cl)cn2)[C@@]3(OCC2(O)CC2)c2ccc(Cl)cc2)cn1C (single isomer, unassigned) [Example 324]
IC50 [1]: 2.2 µM

IC50 [3]: 0.76 µM
Compound: CCC(O)(CN1CCNCC1)c1cc(F)c2c(c1)C(=O)N(Cc1ncc(Cl)cn1)[C@@]2(OCC1(C#N)CC1)c1ccc(Cl)cc1 (single isomer, unassigned) [Example 537]

Compound: CC(O)(c1cc(F)c2c(c1)C(=O)N(Cc1ncc(Cl)cn1)[C@@]2(OCC1(C(N)=O)CC1)c1ccc(Cl)cc1)C1CCOCC1 (stereo partly drawn) [Example 284, 1-({[(1R)-1-(4-chlorophenyl)-2-[(5-chloropyrimidin-2-yl)methyl]-7-fluoro-5-[1-hydroxy-1-(oxan-4-yl)ethyl]-3-oxo-2,3-dihydro-1H-isoindol-1-yl]oxy}methyl)cyclopropane-1-carboxamide]
IC50 [2]: 0.017 µM

Compound: CC(O)(c1cc(F)c2c(c1)C(=O)N(Cc1ccc(C#N)cn1)[C@@]2(OCC1(C#N)CC1)c1ccc(Cl)cc1)C1CCOCC1 (stereo partly drawn) [Example 282, 6-{[(1R)-1-(4-chlorophenyl)-1-[(1-cyanocyclopropyl)methoxy]-7-fluoro-5-[1-hydroxy-1-(oxan-4-yl)ethyl]-3-oxo-2,3-dihydro-1H-isoindol-2-yl]methyl}pyridine-3-carbonitrile]
IC50 [2]: 0.061 µM

Compound: [2H]C([2H])([2H])OCC(C)(O)c1cc(F)c2c(c1)C(=O)N(C([2H])([2H])c1ccc(Cl)cn1)[C@@]2(O[C@H]1CCOC1)c1ccc(Cl)cc1 (single isomer, unassigned) [Example 143]
IC50 [1]: 0.86 µM

Compound: CO[C@]1(c2ccc(Cl)cc2)c2c(F)cc(C(C)(O)C3CCN(C(=O)CN(C)C)CC3)cc2C(=O)N1Cc1ccc(Cl)cn1 (single isomer, unassigned) [Example 298]
IC50 [1]: 0.55 µM

Compound: CCOCC(C)(O)c1cc(F)c2c(c1)C(=O)N(Cc1ccc(Cl)cn1)[C@@]2(O[C@H]1CCOC1)c1ccc(Cl)cc1 (single isomer, unassigned) [Example 141]
IC50 [1]: 1.8 µM

Compound: CO[C@]1(c2ccc(Cl)cc2)c2c(F)cc(C(C)(O)c3cnn(CCN(C)C)c3)cc2C(=O)N1Cc1ccc(Cl)cn1 (stereo partly drawn) [Example 192, (3R)-3-(4-Chlorophenyl)-2-[(5-chloropyridin-2-yl)methyl]-6-(1-{1-[2-(dimethylamino)ethyl]-1H-pyrazol-4-yl}-1-hydroxyethyl)-4-fluoro-3-methoxy-2,3-dihydro-1H-isoindol-1-one]
IC50 [1]: 1.4 µM

Compound: CC(O)(c1cc(F)c2c(c1)C(=O)N(Cc1ccc(C#N)cn1)[C@@]2(OCCO)c1ccc(Cl)cc1)C1CCC1 (single isomer, unassigned) [Example 406]
IC50 [1]: 3.9 µM

Compound: COc1ccc(CN2C(=O)c3cc(C(C)(O)c4cnn(C)c4)cc(F)c3[C@]2(OCC2(CO)CC2)c2ccc(Cl)cc2)nc1 (stereo partly drawn) [Example 224, (3R)-3-(4-chlorophenyl)-4-fluoro-6-[1-hydroxy-1-(1-methyl-1H-pyrazol-4-yl)ethyl]-3-{[1-(hydroxymethyl)cyclopropyl]methoxy}-2-[(5-methoxypyridin-2-yl)methyl]-2,3-dihydro-1H-isoindol-1-one]
IC50 [1]: 0.12 µM

Compound: CO[C@]1(c2ccc(Cl)cc2)c2c(F)cc(C(C)(O)C3CCS(=O)(=O)CC3)cc2C(=O)N1Cc1ccc(Cl)cn1 (single isomer, unassigned) [Example 311]
IC50 [2]: 0.25 µM

Compound: CC(C)(O)c1cc(F)c2c(c1)C(=O)N([C@@H](CO)c1ccc(Cl)cn1)[C@@]2(OCC1(CO)CC1)c1ccc(Cl)cc1 [Example 418, (3R)-3-(4-Chlorophenyl)-2-[(1R)-1-(5-chloropyridin-2-yl)-2-hydroxyethyl]-4-fluoro-3-{[1-(hydroxymethyl)cyclopropyl]methoxy}-6-(2-hydroxypropan-2-yl)-2,3-dihydro-1H-isoindol-1-one]
IC50 [2]: 0.28 µM

IC50 [3]: 4.9 µM
Compound: CCC(O)(c1cc(F)c2c(c1)C(=O)N(Cc1ncc(C#N)cn1)[C@@]2(OC[C@H]1C[C@H](O)C1)c1ccc(Cl)cc1)c1cn(C)cn1 (single isomer, unassigned) [Example 484]

Compound: CO[C@]1(c2ccc(Cl)cc2)c2c(F)cc(C(C)(O)c3ccn(C)n3)cc2C(=O)N1Cc1ccc(Cl)cn1 (single isomer, unassigned) [Example 190]
IC50 [1]: 5 µM

Compound: [2H]C([2H])(O)C1(C([2H])([2H])O[C@]2(c3ccc(Cl)cc3)c3c(F)cc(C(O)(CC)c4cn(C)cn4)cc3C(=O)N2Cc2ccc(C#N)cn2)CC1 (stereo partly drawn) [Example 440, 6-{[(1R)-1-(4-chlorophenyl)-7-fluoro-1-({1-[hydroxy(^2H2)methyl]cyclopropyl}(^2H2)methoxy)-5-[1-hydroxy-1-(1-methyl-1H-imidazol-4-yl)propyl]-3-oxo-2,3-dihydro-1H-isoindol-2-yl]methyl}pyridine-3-carbonitrile]
IC50 [3]: 1.9 µM

Compound: Cn1cc(C(C)(O)c2cc(F)c3c(c2)C(=O)N(Cc2ncc(Cl)cn2)[C@@]3(OCC2(CO)CC2)c2ccc(Cl)cc2)cn1 (single isomer, unassigned) [Example 349]
IC50 [1]: 0.028 µM

Compound: CO[C@]1(c2ccc(Cl)cc2)c2c(F)cc(C(C)(O)C3CN(C(C)=O)C3)cc2C(=O)N1Cc1ccc(Cl)cn1 (stereo partly drawn) [Example 390, (3R)-6-[1-(1-acetylazetidin-3-yl)-1-hydroxyethyl]-3-(4-chlorophenyl)-2-[(5-chloropyridin-2-yl)methyl]-4-fluoro-3-methoxy-2,3-dihydro-1H-isoindol-1-one]
IC50 [1]: 0.63 µM

Compound: Cn1cc(C(C)(O)c2cc(F)c3c(c2)C(=O)N(Cc2ccc(C#N)cn2)[C@@]3(O[C@H]2C[C@@H](O)C2)c2ccc(Cl)cc2)cn1 (single isomer, unassigned) [Example 356, 6-{[1-(4-chlorophenyl)-7-fluoro-5-[1-hydroxy-1-(1-methyl-1H-pyrazol-4-yl)ethyl]-3-oxo-1-[cis-3-hydroxycyclobutoxy]-2,3-dihydro-1H-isoindol-2-yl]methyl}pyridine-3-carbonitrile]
IC50 [1]: 0.96 µM

Compound: CC(O)(c1cc(F)c2c(c1)C(=O)N(Cc1ncc(Cl)cn1)[C@@]2(O[C@H]1C[C@@H](O)C1)c1ccc(Cl)cc1)[C@H]1CC[C@H](O)CC1 (stereo partly drawn) [Example 496]
IC50 [3]: 1.8 µM

Compound: CC(O)(c1cc(F)c2c(c1)C(=O)N(Cc1ncc(Cl)cn1)[C@@]2(OCC1(O)CC1)c1ccc(Cl)cc1)C1CCS(=O)(=O)CC1 (single isomer, unassigned) [Example 397]
IC50 [2]: 2.5 µM

Compound: Cn1cc(C(C)(O)c2cc(F)c3c(c2)C(=O)N(Cc2ccc(Cl)cn2)[C@@]3(OCC2(O)CC2)c2ccc(Cl)cc2)cn1 (single isomer, unassigned) [Example 200]
IC50 [1]: 0.099 µM

Compound: CCn1cc(C(C)(O)c2cc(F)c3c(c2)C(=O)N(Cc2ccc(Cl)cn2)[C@@]3(OCC2(O)CC2)c2ccc(Cl)cc2)cn1 (single isomer, unassigned) [Example 183]
IC50 [1]: 0.43 µM

Compound: Cc1nnc(C(C)(O)c2cc(F)c3c(c2)C(=O)N(Cc2ccc(Cl)cn2)[C@@]3(OCC2(O)CC2)c2ccc(Cl)cc2)o1 (single isomer, unassigned) [Example 186]
IC50 [1]: 0.42 µM

Compound: CC(O)(c1cc(F)c2c(c1)C(=O)N(Cc1ccc(C#N)cn1)[C@@]2(OCCO)c1ccc(Cl)cc1)C1CCC1 (single isomer, unassigned) [Example 405]
IC50 [1]: 0.63 µM

Compound: CC(O)(c1cc(F)c2c(c1)C(=O)N(Cc1ccc(Cl)cn1)[C@@]2(OCCO)c1ccc(Cl)cc1)C1CCS(=O)(=O)CC1 (single isomer, unassigned) [Example 313]
IC50 [2]: 0.95 µM

Compound: CCn1cc(C(C)(O)c2cc(F)c3c(c2)C(=O)N(Cc2ccc(Cl)cn2)[C@@]3(OCC2(C(N)=O)CC2)c2ccc(Cl)cc2)cn1 (single isomer, unassigned) [Example 180]
IC50 [2]: 0.16 µM

Compound: [2H]C([2H])([2H])OCC(C)(O)c1cc(F)c2c(c1)C(=O)N(C([2H])([2H])c1ccc(Cl)cn1)[C@@]2(O[C@H]1CCOC1)c1ccc(Cl)cc1 (single isomer, unassigned) [Example 142]
IC50 [1]: 0.23 µM
